Marks after values point to notes of the source that are not given here.

Here are results for 13 molecules from patent US6613317B1, “Volatile attractants for diabrotica species” (priority 1988, dated 2003).

Experiment [1] concerns northern corn rootworm (NCR). The experiment can be described thus: Sticky trap attraction in corn, phenylethanol analogues (Example 6). Format: in vivo, Diabrotica barberi. To be noted: for Mean number of NCR per trap (± standard deviation) / Mean number (control subtracted) of NCR per trap: four replicates; for Mean number of NCR per trap (± standard deviation): 24 hour. The procedure: (§1) Test chemicals (purchased from Aldrich Chemical Co.; Milwaukee, Wis.) were applied by capillary micropipettes to cotton dental wicks that were attached to tops of 1.0 liter cylindrical paper cartons covered with TangleTrap™, Grand Rapids, Mich. The trapping techniques used were as previously described in Example 1. Unless otherwise indicated, all treatments were made at a dosage of 100 mg or 100 μL of attractant per trap. Control traps had untreated wicks. Four replicates of treated and untreated traps were positioned randomly 10 meters apart on top of 1 m high posts along the edges of 25-50 ha. fields of hybrid corn (Zea mays), infested with adult NCR, SCR, and WCR beetles. Several experiments detailed in the Tables were made in a 0.4 ha plot of sweet corn (Illini X-tra Sweet).
(§2) Attraction of Diabrotica species adults of the sticky traps was measured by the mean number of beetles caught after 1 day (ca. 24 hours) exposure. The significance of the treatments was determined by analysis of variance and the individual means were separated by Duncan's multiple range test (Statistical Package for the Social Sciences, Nie, et al., 2nd. ed. McGraw-Hill, New York (1975). The data was logarithmically transformed for statistical analysis. Means and standard deviations are presented for the untransformed data. Significance levels were set at P=0.05 for all statistical analyses.

The test system of experiment [2] is western corn rootworm (WCR). The experiment is described as above. The class given is in vivo, Diabrotica virgifera virgifera. To be noted: 100 mg per trap, four replicates, 24 hour; for Mean number of WCR per trap (± standard deviation), column WCW: Table 17. The procedure: as §1, §2
The subject of experiment [3] is western corn rootworm (WCR) adults. In words: Sticky trap attraction in corn, estragole analogues (Example 3). The conditions noted are these: 100 mg per trap, n = 4; for Mean number of WCR per sticky trap after 24 hours: August 5 (Table 10). The class given is in vivo, Diabrotica virgifera virgifera. The procedure: as §1, with “chemicals” for “chemicals (purchased from Aldrich Chemical Co.; Milwaukee, Wis.)”, “Cinnamyl alcohol, 4-methoxycinnamaldehyde, cinnamyl acetate, and 4-(4′methoxyphenyl)-3-butene-2-one which are solids at ambient temperature were prepared as standard w/v solutions in acetone prior to dosing the cotton wicks. All” for “Unless otherwise indicated, all”
as §2

Experiment [4] has as its system southern corn rootworm (SCR) adults. The experiment is described as above. The conditions noted are these: 100 mg per trap, n = 4; for Mean number of SCR per sticky trap after 24 hours: August 5 (Table 10). The class given is in vivo, Diabrotica undecimpunctata howardi. The procedure:
as §1, with “chemicals” for “chemicals (purchased from Aldrich Chemical Co.; Milwaukee, Wis.)”, “Cinnamyl alcohol, 4-methoxycinnamaldehyde, cinnamyl acetate, and 4-(4′methoxyphenyl)-3-butene-2-one which are solids at ambient temperature were prepared as standard w/v solutions in acetone prior to dosing the cotton wicks. All” for “Unless otherwise indicated, all”
as §2

Experiment [5] relates to northern corn rootworm (NCR) adults. Described as above. Format: in vivo, Diabrotica barberi. To be noted: 100 mg per trap, n = 4; for Mean number of NCR per sticky trap after 24 hours: August 5 (Table 10). The procedure: as §1, with “chemicals” for “chemicals (purchased from Aldrich Chemical Co.; Milwaukee, Wis.)”, “Cinnamyl alcohol, 4-methoxycinnamaldehyde, cinnamyl acetate, and 4-(4′methoxyphenyl)-3-butene-2-one which are solids at ambient temperature were prepared as standard w/v solutions in acetone prior to dosing the cotton wicks. All” for “Unless otherwise indicated, all”
as §2

The subject of experiment [6] is NCR. In words: Limit of response rating of squash blossom volatiles on sticky traps (Example 5). Format: in vivo, Diabrotica barberi. The conditions noted are these: 24 hour; four replicate traps; 0.01 mg to 200 mg. The procedure:
(§3) Over 40 individual volatile chemicals have been isolated from Cucurbita maxima blossoms and circa 25 of these have been unequivocally identified (Andersen, J. F., J. Agric. Food Chem., 35:60-62 (1987): Andersen, J. F. and Metcalf, R. L., J. Chem. Ecol., 12:687-699 (1986)). The major odor components were evaluated as potential attractants for adult Diabrotica species using cylindrical sticky traps baited with dental cotton wicks (Metcalf, R. L., and Lampman, R. L., Paper submitted to J. Econ. Entomol., (1988)) containing from 0.01 mg to 200 mg of volatile compound.

The subject of experiment [7] is SCR. Described as above. Format: in vivo, Diabrotica undecimpunctata howardi. To be noted: 24 hour; four replicate traps; 0.01 mg to 200 mg. The procedure: as §3
The subject of experiment [8] is WCR. The description is as above. The class given is in vivo, Diabrotica virgifera virgifera. The conditions noted are these: 24 hour; four replicate traps; 0.01 mg to 200 mg. The procedure:
as §3

The mark [9] stands for this setting: day 1 after single 100 mg dosage on cotton wick.
Setting [10] is: day 2 after single 100 mg dosage on cotton wick.
[11] abbreviates: day 3 after single 100 mg dosage on cotton wick.
[12] abbreviates: day 4 after single 100 mg dosage on cotton wick.
Setting [13] is: day 5 after single 100 mg dosage on cotton wick.
The mark [14] stands for this setting: day 6 after single 100 mg dosage on cotton wick.
[15] abbreviates: day 7 after single 100 mg dosage on cotton wick.
Where [16] appears, read: day 8 after single 100 mg dosage on cotton wick.
Setting [17] is: day 11 after single 100 mg dosage on cotton wick.

In the case of `OCCCc1ccccc1`, the “Mean number of NCR per trap (± standard deviation)” value in experiment [1] (Table 17, 100 mg per trap) amounted to 36.2 ± 12.2c per trap. Moreover, the “Mean number (control subtracted) of NCR per trap” value in experiment [1] (setting [9]) is listed as 76.5 per trap; in experiment [1] (setting [10]), 115.3 per trap; in experiment [1] (setting [11]), 38.8 per trap; in experiment [1] (setting [12]) it was 25.0 per trap; in experiment [1] (setting [13]), 41.8 per trap; in experiment [1] (setting [14]), 10.5 per trap. Also, the “Mean number (control subtracted) of NCR per trap” value in experiment [1] (setting [15]) was determined as 10.7 per trap; in experiment [1] (setting [16]), 29.5 per trap; in experiment [1] (setting [17]), 4.5 per trap. The “Mean number of WCR per trap (± standard deviation), column WCW” value in experiment [2] is listed as 4.0 ± 2.9a per trap.

In the case of `COc1ccccc1CCO` [2-methoxyphenylethanol], the “Mean number of NCR per trap (± standard deviation)” value in experiment [1] (Table 16, 100 mg per trap) is recorded as 13.5 ± 9.3a per trap. Besides, the “Mean number of WCR per trap (±standard deviation)” value in experiment [2] (Table 16) was determined as 6.0 ± 5.1a per trap.

For the molecule `COc1cccc(CCO)c1` [3-methoxyphenylethanol], the “Mean number of NCR per trap (± standard deviation)” value in experiment [1] (Table 16, 100 mg per trap) is reported as 7.2 ± 3.4a per trap. Besides, the “Mean number of WCR per trap (±standard deviation)” value in experiment [2] (Table 16) is listed as 3.7 ± 2.1a per trap.

As to `Nc1ccc(CCO)cc1` [4-aminophenylethanol], in experiment [1] (Table 15, 100 mg per trap), the “Mean number of NCR per trap (± standard deviation)” value is listed as 10.5 ± 2.1a per trap. In addition, the “Mean number of WCR per trap (±standard deviation)” value in experiment [2] (Table 15) came out at 8.5 ± 3.4a per trap.

As for `OCCc1ccc(Cl)cc1` [4-chlorophenylethanol], the “Mean number of NCR per trap (± standard deviation)” value in experiment [1] (Table 15, 100 mg per trap) is 30.0 ± 7.4b per trap. Also, the “Mean number of WCR per trap (±standard deviation)” value in experiment [2] (Table 15) came out at 13.7 ± 3.9a per trap.

As to `OCCc1ccc(F)cc1` [4-fluorophenylethanol], in experiment [1] (Table 15, 100 mg per trap), the “Mean number of NCR per trap (± standard deviation)” value came out at 38.0 ± 6.2b per trap. Further, the “Mean number of WCR per trap (±standard deviation)” value in experiment [2] (Table 15) was 14.0 ± 12.3a per trap.

Take `COc1ccc(CCO)cc1` [4-methoxyphenylethanol]: the “Mean number of NCR per trap (± standard deviation)” value in experiment [1] (Table 15, 100 mg per trap) was 187.7 ± 62.5d* per trap; in experiment [1] (Table 16, 100 mg per trap) it was 60.3 ± 26.8b* per trap; in experiment [1] (Table 17, 100 mg per trap) it was 56.7 ± 7.5c per trap; in experiment [1] (Table 18, 0.1 mg), 16.2 ± 1.2b per trap; in experiment [1] (Table 18, 0.3 mg), 32.7 ± 9.4c per trap; in experiment [1] (Table 18, 1 mg), 41.0 ± 23.4c per trap. Moreover, the “Mean number of NCR per trap (± standard deviation)” value in experiment [1] (Table 18, 3 mg) amounted to 72.0 ± 10.8d per trap. For the same molecule, the “lowest level attractive to NCR” value in experiment [1] (Table 18) is reported as no more than 0.1 mg. For the same molecule, the “Mean number (control subtracted) of NCR per trap” value in experiment [1] (setting [9]) amounted to 134.5 per trap; in experiment [1] (setting [10]) it was 231.8 per trap; in experiment [1] (setting [11]), 93.1 per trap; in experiment [1] (setting [12]) it was 51.5 per trap; in experiment [1] (setting [13]), 128.9 per trap; in experiment [1] (setting [14]), 49.2 per trap. The “Mean number (control subtracted) of NCR per trap” value came to 76.7 per trap in experiment [1] (setting [15]), 99.0 per trap in experiment [1] (setting [16]) and 64.8 per trap in experiment [1] (setting [17]). Further, the entries for the “Mean number of WCR per trap (±standard deviation)” value in experiment [2] (Table 15) and in experiment [2] (Table 16) were 5.7 ± 2.8a per trap and 3.5 ± 2.1a per trap, respectively. For the same molecule, in experiment [2], the “Mean number of WCR per trap (± standard deviation), column WCW” value is recorded as 6.0 ± 4.2a per trap.

As to `COc1ccc(CCCO)cc1` [4-methoxyphenylpropanol], the “Mean number of NCR per trap (± standard deviation)” value in experiment [1] (Table 17, 100 mg per trap) amounted to 15.5 ± 6.2b per trap. Besides, in experiment [2], the “Mean number of WCR per trap (± standard deviation), column WCW” value was 3.2 ± 2.2a per trap.

For the molecule `Cc1ccc(CCO)cc1` [4-methylphenylethanol], in experiment [1] (Table 15, 100 mg per trap), the “Mean number of NCR per trap (± standard deviation)” value came to 89.2 ± 7.8c per trap. Also, the “Mean number of WCR per trap (±standard deviation)” value in experiment [2] (Table 15) was found to be 12.2 ± 5.6a per trap.

For the molecule `O=[N+]([O-])c1ccc(CCO)cc1` [4-nitrophenylethanol], the “Mean number of NCR per trap (± standard deviation)” value in experiment [1] (Table 15, 100 mg per trap) is given as 7.7 ± 2.7a per trap. Also, in experiment [2] (Table 15), the “Mean number of WCR per trap (±standard deviation)” value is 7.9 ± 5.1a per trap.

In the case of `O=CC=Cc1ccccc1` [XII, cinnamaldehyde], the “Mean number of WCR adults per sticky trap (±standard deviation) after 24 hours” value is reported as 32.2 ± 8.5^b per sticky trap in experiment [3] (August 4 second year), 4.0 ± 1.8^b per sticky trap in experiment [3] (August 5 first year) and 1.3 ± 1.3^a per sticky trap in experiment [3] (September 11). Also, the “Mean number of WCR per sticky trap after 24 hours” value (shortened to “Mean number of WCR per sticky trap”) in experiment [3] is on record as 44.5 ± 25.5^d per sticky trap. For the same molecule, in experiment [3] (August 7 (Table 11)), the “Mean number of WCR (±standard deviation) per sticky trap after 24 hours” value is 61.5 ± 15.6^b per sticky trap. The results for the “Mean number of SCR adults per sticky trap (±standard deviation) after 24 hours” value in experiment [4] (August 4 second year), in experiment [4] (August 5 first year) and in experiment [4] (September 11) were 135.5 ± 29.3^d per sticky trap, 431.2 ± 120.3^d per sticky trap and 24.0 ± 10.5^c per sticky trap, respectively. In addition, the “Mean number of SCR per sticky trap after 24 hours” value (from here on “Mean number of SCR per sticky trap”) in experiment [4] was 67.5 ± 23.1^d per sticky trap. Moreover, in experiment [4] (August 7 (Table 11)), the “Mean number of SCR (±standard deviation) per sticky trap after 24 hours” value is 63.5 ± 25.7^c per sticky trap. Besides, the “Mean number of NCR per sticky trap after 24 hours” value (“Mean number of NCR per sticky trap” for short) in experiment [5] is recorded as 1.2 ± 1.3^a per sticky trap. Moreover, in experiment [5] (August 7 (Table 11)), the “Mean number of NCR (±standard deviation) per sticky trap after 24 hours” value was 0.3 ± 0.5^a per sticky trap. Moreover, in experiment [6], the “Attractant Rating NCR (by limit of response)” value is given as 0 (200). The “Attractant Rating SCR (by limit of response)” value in experiment [7] is given as “+4 (1-3)”. Also, the “Attractant Rating WCR (by limit of response)” value in experiment [8] is on record as “+3 (3-10)”. Besides, in experiment [1] (Table 17, 100 mg per trap), the “Mean number of NCR per trap (± standard deviation)” value is listed as 15.5 ± 3.8b per trap. Also, in experiment [2], the “Mean number of WCR per trap (± standard deviation), column WCW” value came to 56.0 ± 34.6b per trap.

Regarding `O=C(O)CCc1ccccc1` [XXII, dihydrocinnamic acid], in experiment [3], the “Mean number of WCR per sticky trap” value is listed as 12.0 ± 3.6^a per sticky trap. The “Mean number of SCR per sticky trap” value in experiment [4] is 33.7 ± 8.7^bc per sticky trap. Besides, the “Mean number of NCR per sticky trap” value in experiment [5] was 4.0 ± 1.4^b per sticky trap.

`N#CCCc1ccccc1` [XXIII, phenyl propionitrile]: the “Mean number of WCR per sticky trap” value in experiment [3] is 12.0 ± 4.2^a per sticky trap. Moreover, in experiment [4], the “Mean number of SCR per sticky trap” value is 23.7 ± 9.7^b per sticky trap. Also, the “Mean number of NCR per sticky trap” value in experiment [5] was 0.3 ± 0.5^a per sticky trap.
